Test results taken from patent publication US20250312462A1, “PAK1 DEGRADERS AND METHODS OF USE THEREOF” (INSTITUTE FOR CANCER RESEARCH D/B/A THE RESEARCH INSTITUTE …, priority 2022, published 2025).

How the values were obtained:
WNK2 = WNK2 (Homo sapiens, UniProt Q9Y3S1); test: KINOMEscan; conditions: read-out: Percent Control
Protocol: (§1) The kinase engagement assay (KINOMEscan®) was performed by DiscoverX assessing binding abilities toward a set of kinases.

PRKCH = PRKCH (Homo sapiens, UniProt P24723); test: KINOMEscan; conditions: read-out: Percent Control
Protocol: as §1

PIK3C2B = PIK3C2B (Homo sapiens, UniProt O00750); test: KINOMEscan; conditions: read-out: Percent Control
Protocol: as §1

PAK1 = PAK1 (Homo sapiens, UniProt Q13153); test: PAK1 degradation in MCF7 and OVCAR3 cells, immunoblot; assay type: cell-based; set-up: endogenous in cells; host or cells: MCF7, OVCAR3
Chain of PAK1 (Q13153 whole entry): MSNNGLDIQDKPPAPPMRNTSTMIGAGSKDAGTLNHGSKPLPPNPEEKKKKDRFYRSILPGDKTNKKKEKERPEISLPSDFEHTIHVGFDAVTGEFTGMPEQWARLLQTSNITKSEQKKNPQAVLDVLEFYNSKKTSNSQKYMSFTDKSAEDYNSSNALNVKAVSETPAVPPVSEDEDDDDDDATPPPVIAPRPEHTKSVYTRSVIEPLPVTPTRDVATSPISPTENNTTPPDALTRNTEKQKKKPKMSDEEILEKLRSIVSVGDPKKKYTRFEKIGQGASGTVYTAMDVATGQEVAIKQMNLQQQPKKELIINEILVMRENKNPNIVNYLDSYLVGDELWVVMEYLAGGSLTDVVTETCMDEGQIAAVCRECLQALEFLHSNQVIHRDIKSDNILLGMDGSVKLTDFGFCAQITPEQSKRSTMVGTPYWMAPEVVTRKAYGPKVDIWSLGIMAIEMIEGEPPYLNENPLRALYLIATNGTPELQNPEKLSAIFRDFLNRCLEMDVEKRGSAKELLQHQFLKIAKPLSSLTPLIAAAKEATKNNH
Protocol: Protein lysates were harvested at the times specified.
Cell lysates were obtained by centrifugation at 13,500 rpm for 15 minutes at 4° C. BCA protein assay (Thermo Scientific) was used to determine protein concentration then equal amounts of total proteins were separated by SDS-PAGE (Bio-Rad) and transferred to PVDF membrane (Thermo Scientific) at 100V for 2 hours. Membranes were blocked in 5% (w/v) non-fat dry milk in tris-buffered saline with 0.1% Tween-20 (TBS-T) for 1 hour and incubated with primary antibody at 4° C. for overnight. Membranes were washed with TBS-T on the next day and incubated with HRP-conjugated secondary antibodies (Millipore) at room temperature for 1 hour and exposed to films after washing.

TGFBR2 = TGFBR2 (Homo sapiens, UniProt P37173); test: KINOMEscan; conditions: read-out: Percent Control
Protocol: as §1

LATS1 = LATS1 (Homo sapiens, UniProt O95835); test: KINOMEscan; conditions: read-out: Percent Control
Protocol: as §1

KIT = KIT (Homo sapiens, UniProt P10721); test: KINOMEscan; conditions: read-out: Percent Control
Protocol: as §1

[1] = biological target: ABL1(F317I)-phosphorylated (Homo sapiens, UniProt P00519, F317I); test: KINOMEscan; conditions: read-out: Percent Control
Protocol: as §1

MYO3B = MYO3B (Homo sapiens, UniProt Q8WXR4); test: KINOMEscan; conditions: read-out: Percent Control
Chain of MYO3B (Q8WXR4 whole entry): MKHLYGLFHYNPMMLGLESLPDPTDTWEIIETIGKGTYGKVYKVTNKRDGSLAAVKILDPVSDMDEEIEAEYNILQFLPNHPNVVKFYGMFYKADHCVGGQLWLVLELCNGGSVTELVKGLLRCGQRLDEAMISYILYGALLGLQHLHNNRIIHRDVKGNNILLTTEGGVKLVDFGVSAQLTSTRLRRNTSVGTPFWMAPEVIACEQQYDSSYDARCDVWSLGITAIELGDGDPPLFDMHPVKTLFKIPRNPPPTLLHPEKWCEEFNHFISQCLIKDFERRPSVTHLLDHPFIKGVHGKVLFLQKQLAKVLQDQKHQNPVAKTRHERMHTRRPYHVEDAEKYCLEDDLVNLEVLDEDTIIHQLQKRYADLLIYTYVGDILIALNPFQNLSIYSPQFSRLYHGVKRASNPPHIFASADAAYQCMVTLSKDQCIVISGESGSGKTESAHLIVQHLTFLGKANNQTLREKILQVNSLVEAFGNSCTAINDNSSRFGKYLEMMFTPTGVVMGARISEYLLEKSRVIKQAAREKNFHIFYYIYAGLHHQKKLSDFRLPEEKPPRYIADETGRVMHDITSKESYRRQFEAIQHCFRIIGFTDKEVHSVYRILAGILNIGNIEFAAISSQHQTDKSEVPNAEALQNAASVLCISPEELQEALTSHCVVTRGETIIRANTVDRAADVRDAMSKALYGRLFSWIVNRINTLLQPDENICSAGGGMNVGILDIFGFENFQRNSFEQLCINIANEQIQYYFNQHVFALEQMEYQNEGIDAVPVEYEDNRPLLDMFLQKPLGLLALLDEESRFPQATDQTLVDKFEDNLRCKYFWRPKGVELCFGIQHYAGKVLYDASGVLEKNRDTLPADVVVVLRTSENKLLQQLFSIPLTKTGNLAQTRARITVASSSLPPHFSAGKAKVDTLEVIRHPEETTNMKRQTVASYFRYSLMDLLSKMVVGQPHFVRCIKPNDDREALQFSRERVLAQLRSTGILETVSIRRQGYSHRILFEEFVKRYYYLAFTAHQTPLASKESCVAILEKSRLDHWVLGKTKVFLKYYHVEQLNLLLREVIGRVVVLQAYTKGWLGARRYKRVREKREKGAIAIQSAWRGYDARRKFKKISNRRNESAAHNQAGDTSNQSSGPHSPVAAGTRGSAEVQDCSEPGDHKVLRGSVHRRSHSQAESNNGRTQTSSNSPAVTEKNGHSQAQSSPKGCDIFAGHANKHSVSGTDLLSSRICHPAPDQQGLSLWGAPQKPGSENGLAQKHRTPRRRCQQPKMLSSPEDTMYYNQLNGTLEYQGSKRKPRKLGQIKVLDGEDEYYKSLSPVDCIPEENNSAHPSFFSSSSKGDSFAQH
Protocol: as §1

[2] = biological target: RSK1(Kin.Dom.1-N-terminal) (Homo sapiens, UniProt Q15418); test: KINOMEscan; conditions: read-out: Percent Control
Protocol: as §1

CDKL5 = CDKL5 (Homo sapiens, UniProt O76039); test: KINOMEscan; conditions: read-out: Percent Control
Protocol: as §1

MAP4K5 = MAP4K5 (Homo sapiens, UniProt Q9Y4K4); test: KINOMEscan; conditions: read-out: Percent Control
Protocol: as §1

MAPKAPK2 = MAPKAPK2 (Homo sapiens, UniProt P49137); test: KINOMEscan; conditions: read-out: Percent Control
Chain of MAPKAPK2 (P49137 whole entry): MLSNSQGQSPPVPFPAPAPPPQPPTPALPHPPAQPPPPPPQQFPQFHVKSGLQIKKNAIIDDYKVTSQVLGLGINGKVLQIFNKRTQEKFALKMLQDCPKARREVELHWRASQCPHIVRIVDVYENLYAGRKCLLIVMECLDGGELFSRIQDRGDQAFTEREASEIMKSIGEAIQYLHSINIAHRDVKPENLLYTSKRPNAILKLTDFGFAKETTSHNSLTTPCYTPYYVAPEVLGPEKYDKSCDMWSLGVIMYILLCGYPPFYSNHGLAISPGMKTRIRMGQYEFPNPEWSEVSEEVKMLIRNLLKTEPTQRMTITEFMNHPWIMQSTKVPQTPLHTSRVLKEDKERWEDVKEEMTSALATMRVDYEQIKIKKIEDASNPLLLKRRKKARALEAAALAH
Protocol: as §1

MST3 = MST3 (Homo sapiens, UniProt Q9Y6E0); test: KINOMEscan; conditions: read-out: Percent Control
Chain of MST3 (Q9Y6E0 whole entry): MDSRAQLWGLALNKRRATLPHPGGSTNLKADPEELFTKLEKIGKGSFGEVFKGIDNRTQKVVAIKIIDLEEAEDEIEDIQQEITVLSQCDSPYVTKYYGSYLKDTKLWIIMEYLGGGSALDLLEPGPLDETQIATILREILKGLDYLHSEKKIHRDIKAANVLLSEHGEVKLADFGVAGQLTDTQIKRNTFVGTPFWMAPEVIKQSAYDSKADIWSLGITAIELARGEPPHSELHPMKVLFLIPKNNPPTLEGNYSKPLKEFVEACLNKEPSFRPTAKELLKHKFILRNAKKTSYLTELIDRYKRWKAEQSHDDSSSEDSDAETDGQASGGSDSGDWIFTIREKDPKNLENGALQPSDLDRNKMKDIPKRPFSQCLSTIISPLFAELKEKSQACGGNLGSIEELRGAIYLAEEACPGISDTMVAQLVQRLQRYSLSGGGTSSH
Protocol: as §1

[3] = biological target: ABL1(Q252H)-nonphosphorylated (Homo sapiens, UniProt P00519, Q252H); test: KINOMEscan; conditions: read-out: Percent Control
Protocol: as §1

HIPK3 = HIPK3 (Homo sapiens, UniProt Q9H422); test: KINOMEscan; conditions: read-out: Percent Control
Protocol: as §1

RET(V804M) = RET(V804M) (Homo sapiens, UniProt P07949, V804M); test: KINOMEscan; conditions: read-out: Percent Control
Protocol: as §1

ZAK = ZAK (Homo sapiens, UniProt Q9NYL2); test: KINOMEscan; conditions: read-out: Percent Control
Protocol: as §1

PHKG2 = PHKG2 (Homo sapiens, UniProt P15735); test: KINOMEscan; conditions: read-out: Percent Control
Protocol: as §1

SRMS = SRMS (Homo sapiens, UniProt Q9H3Y6); test: KINOMEscan; conditions: read-out: Percent Control
Chain of SRMS (Q9H3Y6 whole entry): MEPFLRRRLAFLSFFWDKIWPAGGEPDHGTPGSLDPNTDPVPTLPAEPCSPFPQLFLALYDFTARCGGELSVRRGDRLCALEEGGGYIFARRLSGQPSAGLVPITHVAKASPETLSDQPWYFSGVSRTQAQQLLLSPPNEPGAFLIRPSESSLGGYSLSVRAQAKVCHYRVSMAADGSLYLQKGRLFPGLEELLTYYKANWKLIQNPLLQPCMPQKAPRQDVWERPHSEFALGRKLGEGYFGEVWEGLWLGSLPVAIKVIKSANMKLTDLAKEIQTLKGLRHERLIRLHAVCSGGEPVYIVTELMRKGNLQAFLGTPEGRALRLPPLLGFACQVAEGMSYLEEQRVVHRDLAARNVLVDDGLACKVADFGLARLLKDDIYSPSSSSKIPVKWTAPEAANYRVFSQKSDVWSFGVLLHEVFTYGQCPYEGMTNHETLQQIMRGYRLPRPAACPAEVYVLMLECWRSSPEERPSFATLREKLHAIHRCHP
Protocol: as §1

TAOK2 = TAOK2 (Homo sapiens, UniProt Q9UL54); test: KINOMEscan; conditions: read-out: Percent Control
Protocol: as §1

PIP5K2C = PIP5K2C (Homo sapiens, UniProt Q8TBX8); test: KINOMEscan; conditions: read-out: Percent Control
Chain of PIP5K2C (Q8TBX8 whole entry): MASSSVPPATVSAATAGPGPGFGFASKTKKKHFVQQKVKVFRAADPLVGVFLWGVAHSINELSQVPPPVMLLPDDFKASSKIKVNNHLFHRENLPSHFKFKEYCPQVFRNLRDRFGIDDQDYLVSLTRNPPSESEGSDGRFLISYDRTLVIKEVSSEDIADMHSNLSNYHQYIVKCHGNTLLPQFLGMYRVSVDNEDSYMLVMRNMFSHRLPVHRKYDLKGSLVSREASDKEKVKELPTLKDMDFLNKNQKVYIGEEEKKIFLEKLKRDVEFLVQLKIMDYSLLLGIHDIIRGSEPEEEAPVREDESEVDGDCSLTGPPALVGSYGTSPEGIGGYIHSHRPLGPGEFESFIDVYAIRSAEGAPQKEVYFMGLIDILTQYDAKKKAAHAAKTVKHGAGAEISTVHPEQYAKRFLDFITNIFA
Protocol: as §1

PKAC-beta = PKAC-beta (Homo sapiens, UniProt P22694); test: KINOMEscan; conditions: read-out: Percent Control
Protocol: as §1

PRKCQ = PRKCQ (Homo sapiens, UniProt Q04759); test: KINOMEscan; conditions: read-out: Percent Control
Protocol: as §1

CSK = CSK (Homo sapiens, UniProt P41240); test: KINOMEscan; conditions: read-out: Percent Control
Protocol: as §1

PIP5K1C = PIP5K1C (Homo sapiens, UniProt O60331); test: KINOMEscan; conditions: read-out: Percent Control
Protocol: as §1

RIOK1 = RIOK1 (Homo sapiens, UniProt Q9BRS2); test: KINOMEscan; conditions: read-out: Percent Control
Chain of RIOK1 (Q9BRS2 whole entry): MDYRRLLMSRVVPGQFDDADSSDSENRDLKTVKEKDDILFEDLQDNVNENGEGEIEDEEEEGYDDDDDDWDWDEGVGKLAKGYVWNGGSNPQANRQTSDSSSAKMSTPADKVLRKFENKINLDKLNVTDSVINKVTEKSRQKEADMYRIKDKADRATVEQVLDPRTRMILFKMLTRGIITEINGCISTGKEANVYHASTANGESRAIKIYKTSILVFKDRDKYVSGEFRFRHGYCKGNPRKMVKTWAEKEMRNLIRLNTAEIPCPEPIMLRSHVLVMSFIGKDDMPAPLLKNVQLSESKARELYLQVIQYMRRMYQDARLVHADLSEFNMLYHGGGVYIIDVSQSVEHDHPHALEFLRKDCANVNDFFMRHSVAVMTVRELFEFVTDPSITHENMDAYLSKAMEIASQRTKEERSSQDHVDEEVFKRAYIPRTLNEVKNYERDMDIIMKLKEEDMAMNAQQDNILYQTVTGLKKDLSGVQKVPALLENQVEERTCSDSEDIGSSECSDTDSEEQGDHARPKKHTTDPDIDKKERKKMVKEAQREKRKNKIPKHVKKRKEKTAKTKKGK
Protocol: as §1

FLT4 = FLT4 (Homo sapiens, UniProt P35916); test: KINOMEscan; conditions: read-out: Percent Control
Protocol: as §1

MUSK = MUSK (Homo sapiens, UniProt O15146); test: KINOMEscan; conditions: read-out: Percent Control
Chain of MUSK (O15146 24-869): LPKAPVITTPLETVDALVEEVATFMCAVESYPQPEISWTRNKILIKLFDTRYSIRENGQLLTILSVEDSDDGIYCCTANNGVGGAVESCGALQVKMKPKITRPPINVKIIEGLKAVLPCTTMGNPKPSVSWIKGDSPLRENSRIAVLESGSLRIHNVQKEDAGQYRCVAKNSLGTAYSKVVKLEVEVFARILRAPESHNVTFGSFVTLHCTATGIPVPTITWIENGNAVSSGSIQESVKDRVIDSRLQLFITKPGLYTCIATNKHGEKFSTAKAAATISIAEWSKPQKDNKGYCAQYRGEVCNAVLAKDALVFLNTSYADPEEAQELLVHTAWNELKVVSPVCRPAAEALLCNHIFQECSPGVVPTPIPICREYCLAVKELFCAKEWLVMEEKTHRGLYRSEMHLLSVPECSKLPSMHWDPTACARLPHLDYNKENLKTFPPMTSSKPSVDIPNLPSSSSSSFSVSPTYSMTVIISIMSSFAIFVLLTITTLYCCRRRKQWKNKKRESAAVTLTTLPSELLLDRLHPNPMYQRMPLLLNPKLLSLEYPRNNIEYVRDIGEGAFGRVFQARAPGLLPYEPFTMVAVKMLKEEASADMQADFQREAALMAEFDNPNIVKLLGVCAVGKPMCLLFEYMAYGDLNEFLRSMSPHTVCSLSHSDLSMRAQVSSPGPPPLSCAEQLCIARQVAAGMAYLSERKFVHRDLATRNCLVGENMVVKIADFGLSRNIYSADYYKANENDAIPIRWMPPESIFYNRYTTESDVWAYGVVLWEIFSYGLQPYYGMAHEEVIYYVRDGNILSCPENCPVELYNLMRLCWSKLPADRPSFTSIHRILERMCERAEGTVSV
Protocol: as §1

CSNK1G2 = CSNK1G2 (Homo sapiens, UniProt P78368); test: KINOMEscan; conditions: read-out: Percent Control
Protocol: as §1

Question: How did the remaining binding at 10 µM (WNK2) turn out when `O=C1CCC(N2C(=O)c3cccc(NCCCCCCCCNC(=O)N4CC[C@H](NC5=Nc6cc(F)ccc6N(CC(F)F)c6ccc(Cl)cc65)C4)c3C2=O)C(=O)N1` (stereo partly drawn) [BJG-05-039, (3S)-3-((2-Chloro-5-(2,2-difluoroethyl)-8-fluoro-5H-dibenzo[b,e][1,4]diazepin-11-yl)amino)-N-(8-((2-(2,6-dioxopiperidin-3-yl)-1,3-dioxoisoindolin-4-yl)amino)octyl)pyrrolidine-1-carboxamide] was run?
Answer: Its remaining binding at 10 µM is 89%.

Question: And the remaining binding at 10 µM (PRKCH)?
Answer: The remaining binding at 10 µM was 94%.

Question: What about the remaining binding at 10 µM (PIK3C2B) of the same compound?
Answer: The remaining binding at 10 µM was 90%.

Question: And the “Reduction in PAK1 levels by immunoblot” value (PAK1; FIG. 2A)?
Answer: Its value is roughly 50%.

Question: And the PAK1 degradation (PAK1; MCF7 and OVCAR3 cells)?
Answer: The PAK1 degradation was “induced degradation of PAK1”.

Question: And the “Concentration of maximal PAK1 degradation” value (PAK1; MCF7 and OVCAR3 cells, 12 hour treatment)?
Answer: Its value is 10 nM.

Question: What about the “Time to partial degradation of PAK1” value (PAK1; MCF7 cells, 250 nM, progressive loss out to 24 hours) of the same compound?
Answer: Its value is no more than 4 h.

Question: What about the “PAK1 degradation on co-treatment” value (PAK1; co-treatment with bortezomib or MLN4924) of the same compound?
Answer: The value was “prevented PAK1 destabilization”.

Question: And the “PAK1 degradation at high concentration (hook effect)” value (PAK1; concentrations of 1 μM and greater)?
Answer: The value was “diminished PAK1 degradation was observed”.

Question: And the remaining binding at 10 µM (TGFBR2)?
Answer: Its remaining binding at 10 µM is 75%.

Question: What about the remaining binding at 10 µM (LATS1) of the same compound?
Answer: The remaining binding at 10 µM was 100%.

Question: And the remaining binding at 10 µM (KIT)?
Answer: The remaining binding at 10 µM was 82%.

Question: What about the remaining binding at 10 µM [1] of the same compound?
Answer: Its remaining binding at 10 µM is 100%.

Question: And the remaining binding at 10 µM (MYO3B)?
Answer: Its remaining binding at 10 µM is 88%.

Question: What about the remaining binding at 10 µM [2] of the same compound?
Answer: Its remaining binding at 10 µM is 87%.

Question: What about the remaining binding at 10 µM (CDKL5) of the same compound?
Answer: The remaining binding at 10 µM was 100%.

Question: And the remaining binding at 10 µM (MAP4K5)?
Answer: The remaining binding at 10 µM was 59%.

Question: What about the remaining binding at 10 µM (MAPKAPK2) of the same compound?
Answer: Its remaining binding at 10 µM is 60%.

Question: What about the remaining binding at 10 µM (MST3) of the same compound?
Answer: The remaining binding at 10 µM was 52%.

Question: What about the remaining binding at 10 µM [3] of the same compound?
Answer: The remaining binding at 10 µM was 87%.

Question: What about the remaining binding at 10 µM (HIPK3) of the same compound?
Answer: Its remaining binding at 10 µM is 100%.

Question: What about the remaining binding at 10 µM (RET(V804M)) of the same compound?
Answer: The remaining binding at 10 µM was 59%.

Question: What about the remaining binding at 10 µM (ZAK) of the same compound?
Answer: Its remaining binding at 10 µM is 97%.

Question: And the remaining binding at 10 µM (PHKG2)?
Answer: The remaining binding at 10 µM was 40%.

Question: What about the remaining binding at 10 µM (SRMS) of the same compound?
Answer: Its remaining binding at 10 µM is 97%.

Question: And the remaining binding at 10 µM (TAOK2)?
Answer: The remaining binding at 10 µM was 93%.

Question: And the remaining binding at 10 µM (PIP5K2C)?
Answer: Its remaining binding at 10 µM is 100%.

Question: What about the remaining binding at 10 µM (PKAC-beta) of the same compound?
Answer: Its remaining binding at 10 µM is 62%.

Question: And the remaining binding at 10 µM (PRKCQ)?
Answer: The remaining binding at 10 µM was 77%.

Question: And the remaining binding at 10 µM (CSK)?
Answer: Its remaining binding at 10 µM is 74%.

Question: And the remaining binding at 10 µM (PIP5K1C)?
Answer: The remaining binding at 10 µM was 96%.

Question: What about the remaining binding at 10 µM (RIOK1) of the same compound?
Answer: Its remaining binding at 10 µM is 84%.

Question: What about the remaining binding at 10 µM (FLT4) of the same compound?
Answer: Its remaining binding at 10 µM is 86%.

Question: What about the remaining binding at 10 µM (MUSK) of the same compound?
Answer: The remaining binding at 10 µM was 60%.

Question: And the remaining binding at 10 µM (CSNK1G2)?
Answer: Its remaining binding at 10 µM is 78%.
